Experimental data published in US7790769B2, “Merocyanine derivatives” (Ciba Corporation, priority 2005, dated 2010).

Assay: Solubility behaviour in water and cosmetic solvents/oils
Format: physicochemical
Conditions: for Solubility behaviour [%], Cyclomethicone: solvent: Cyclomethicone; for Solubility behaviour [%], Finsolve TN: solvent: Finsolve TN; for Solubility behaviour [%], Jojoba Oil: solvent: Jojoba Oil; for Solubility behaviour [%], Mineral Oil: solvent: Mineral Oil; for Solubility behaviour [%], Mygliol: solvent: Mygliol; for Solubility behaviour [%], Polydecene: solvent: Polydecene; for Solubility behaviour [%], Propyleneglycol: solvent: Propyleneglycol; for Solubility behaviour [%], (Water): solvent: water

| Structure (SMILES) | Solubility behaviour [%], Cyclomethicone | Solubility behaviour [%], Finsolve TN | Solubility behaviour [%], Jojoba Oil | Solubility behaviour [%], Mineral Oil | Solubility behaviour [%], Mygliol | Solubility behaviour [%], Polydecene | Solubility behaviour [%], Propyleneglycol | Solubility behaviour [%], (Water) |
| --- | --- | --- | --- | --- | --- | --- | --- | --- |
| CCCCC(CC)CN(CC(CC)CCCC)C1=CC(=C(C#N)C#N)CCC1 (stereo not shown) | 0.540% | >50% | >50% | 1.514% | >50% | 0.734% | 0.766% | 0.000% |
| CCCCC(CC)CN(CC(CC)CCCC)C1=CC(=C(C#N)C#N)CC(C)(C)C1 (stereo not shown) | 0.509% | >5% | 2.470% | 0.569% | >5% | 0.367% | 0.361% | 0.000% |
